Data: US20250074906A1, “AZAINDOLE DERIVATIVE THAT INHIBITS H-PGDS” (SATO PHARMACEUTICAL CO., LTD., priority 2021, published 2025)

Biological target: T1, Recombinant human H-PGDS (Homo sapiens, UniProt O60760)
T1 construct: made in house; host or cells: E. coli
Assay: H-PGDS inhibitory activity (prostaglandin D2 production measured by LC-MS/MS)
Format: biochemical
Conditions: recombinant human H-PGDS 1.0 nM expressed in E. coli; prostaglandin H2 25 μM; 15 min preincubation and 1 min reaction on ice
Experimental: The H-PGDS inhibitory activity of each Example compound was measured according to the method described in WO 2007/041634.
Recombinant human H-PGDS (final concentration: 1.0 nM) expressed in E. coli was mixed in an assay buffer containing 20 mM Tris-HCl (pH 8.0), 2 mM magnesium chloride, 2 mM reduced glutathione, and 0.5 mg/mL γ-globulin, and 150 μL of the mixture was dispensed into an 8-strip PCR tube (BM Equipment Co., Ltd). Test compounds (Example compounds) (16.5 μL) at various concentrations dissolved in DMSO were added and the mixture was preincubated for 15 minutes on ice.
Prostaglandin H2 (final concentration: 25 μM) (Cayman Chemical) was dispensed into another 8-strip PCR tube, and the solvent was dried and solidified using a vacuum concentrator (Thermo Fisher Scientific). To the dried and solidified prostaglandin H2 was added 50 μL of the assay buffer containing H-PGDS and each test compound after the preincubation, and the mixture was reacted on ice for 1 minute. 40 μL of this mixture was added to 40 μL of a stop solution (50 mM aqueous citric acid solution containing iron chloride at a final concentration of 4 mg/mL) to stop the reaction. Then, the reaction solution was deproteinized, added to a 96 square deep well plate (SHONANMARUHACHI STEC Co., Ltd.), and the prostaglandin D2 concentration in the reaction solution was measured by LC-MS/MS. ACQUITY (registered trademark) TQD (Waters) was used as a measuring instrument.
Prostaglandin D2 production activity (%) in the group with each test compound when a value obtained by subtracting the amount of production of prostaglandin D2 in the group without enzyme, which is non-specific production of prostaglandin D2, from the amount of production of prostaglandin D2 in the group without test compound (DMSO-addition group) in each 8-strip PCR tube is 100% was calculated. From the calculated activity value, the test compound concentration that inhibits prostaglandin D2 production by 50% (IC50) was determined.

T1 sequence (O60760 whole entry): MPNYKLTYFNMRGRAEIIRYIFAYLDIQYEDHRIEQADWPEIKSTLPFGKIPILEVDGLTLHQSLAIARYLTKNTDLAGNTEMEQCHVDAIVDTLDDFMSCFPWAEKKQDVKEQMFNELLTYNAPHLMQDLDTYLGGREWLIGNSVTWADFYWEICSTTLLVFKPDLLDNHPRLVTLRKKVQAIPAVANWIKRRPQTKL

| SMILES | IC50 |
| --- | --- |
| O=C(NC12CCC(O)(CC1)CC2)c1ccc(-c2nccc3[nH]ccc23)c(F)c1 [Example 6, 3-fluoro-N-(4-hydroxybicyclo[2.2.2]octan-1-yl)-4-(1H-pyrrolo[3,2-c]pyridin-4-yl)benzamide] | 1.1 nM |
| C[C@]1(O)CC[C@H](NC(=O)c2ccc(-c3ncc(F)c4[nH]ccc34)c(F)c2)CC1 [Example 37, 3-fluoro-4-(7-fluoro-1H-pyrrolo[3,2-c]pyridin-4-yl)-N-(trans-4-hydroxy-4-methylcyclohexyl)benzamide] | 0.95 nM |
| CC(C)(O)[C@H]1CC[C@H](NC(=O)c2ccc(-c3ncc(Cl)c4[nH]ccc34)cc2)CC1 [Example 14, 4-(7-chloro-1H-pyrrolo[3,2-c]pyridin-4-yl)-N-[trans-4-(2-hydroxypropan-2-yl)cyclohexyl]benzamide] | 1.2 nM |
| CC(C)(O)[C@H]1CC[C@H](NC(=O)c2ccc(-c3ncc(Cl)c4[nH]ncc34)cc2)CC1 [Example 48, 4-(7-chloro-1H-pyrazolo[4,3-c]pyridin-4-yl)-N-[trans-4-(2-hydroxypropan-2-yl)cyclohexyl]benzamide] | 5.9 nM |
| Cc1cnc(-c2ccc(C(=O)N[C@H]3CC[C@H](C4(O)CC4)CC3)cc2)c2cc[nH]c12 [Example 3, N-[trans-4-(1-hydroxycyclopropyl)cyclohexyl]-4-(7-methyl-1H-pyrrolo[3,2-c]pyridin-4-yl)benzamide] | 1.9 nM |
| N#C[C@H]1CC[C@H](NC(=O)c2ccc(-c3ncc(F)c4[nH]ccc34)cc2)CC1 [Example 26, N-(trans-4-cyanocyclohexyl)-4-(7-fluoro-1H-pyrrolo[3,2-c]pyridin-4-yl)benzamide] | 1.3 nM |
| O=C(N[C@H]1CC[C@H](O)CC1)c1ccc(-c2ncc(F)c3[nH]ccc23)cc1 [Example 20, 4-(7-fluoro-1H-pyrrolo[3,2-c]pyridin-4-yl)-N-(trans-4-hydroxycyclohexyl)benzamide] | 0.94 nM |
| CC(C)(O)CO[C@H]1CC[C@H](NC(=O)c2ccc(-c3ncc(F)c4[nH]ccc34)cc2)CC1 [Example 22, 4-(7-fluoro-1H-pyrrolo[3,2-c]pyridin-4-yl)-N-[trans-4-(2-hydroxy-2-methylpropoxy)cyclohexyl]benzamide] | 2.1 nM |
| CC(C)(O)[C@H]1CC[C@H](NC(=O)c2ccc(-c3ncc(C#N)c4[nH]ccc34)cc2)CC1 [Example 15, 4-(7-cyano-1H-pyrrolo[3,2-c]pyridin-4-yl)-N-[trans-4-(2-hydroxypropan-2-yl)cyclohexyl]benzamide] | 3.4 nM |
| CC(C)(O)[C@H]1CC[C@H](NC(=O)c2ccc(-c3nccc4[nH]nnc34)cc2)CC1 [Example 45, 4-(1H-[1,2,3]triazolo[4,5-c]pyridin-4-yl)-N-[trans-4-(2-hydroxypropan-2-yl)cyclohexyl]benzamide] | 24 nM |
| CC(C)(O)[C@H]1CC[C@H](NC(=O)c2ccc(-c3ncc(C(F)F)c4[nH]ccc34)cc2)CC1 [Example 18, 4-[7-(difluoromethyl)-1H-pyrrolo[3,2-c]pyridin-4-yl]-N-[trans-4-(2-hydroxypropan-2-yl)cyclohexyl]benzamide] | 2.8 nM |

These reach a lower IC50. Values come first.

| IC50 | SMILES |
| --- | --- |
| 0.65 nM | O=C(N[C@H]1CC[C@H](O)CC1)c1ccc(-c2ncc(F)c3[nH]ccc23)c(F)c1 [Example 39, 3-fluoro-4-(7-fluoro-1H-pyrrolo[3,2-c]pyridin-4-yl)-N-(trans-4-hydroxycyclohexyl)benzamide] |
| 0.91 nM | O=C(NC12CCC(O)(CC1)C2)c1ccc(-c2ncc(Cl)c3[nH]ccc23)cc1 [Example 32, 4-(7-chloro-1H-pyrrolo[3,2-c]pyridin-4-yl)-N-(4-hydroxybicyclo[2.2.1]heptan-1-yl)benzamide] |
| 0.71 nM | O=C(NC12CCC(O)(CC1)CC2)c1ccc(-c2ncc(F)c3[nH]ccc23)c(F)c1 [Example 36, 3-fluoro-4-(7-fluoro-1H-pyrrolo[3,2-c]pyridin-4-yl)-N-(4-hydroxybicyclo[2.2.2]octan-1-yl)benzamide] |
| 0.79 nM | O=C(N[C@H]1CC[C@@H](O)CC1)c1ccc(-c2ncc(F)c3[nH]ccc23)cc1 [Example 23, 4-(7-fluoro-1H-pyrrolo[3,2-c]pyridin-4-yl)-N-(cis-4-hydroxycyclohexyl)benzamide] |
| 0.88 nM | O=C(N[C@H]1CC[C@H](O)CC1)c1ccc(-c2nccc3[nH]ccc23)c(F)c1 [Example 12, 3-fluoro-N-(trans-4-hydroxycyclohexyl)-4-(1H-pyrrolo[3,2-c]pyridin-4-yl)benzamide] |
